{"source": "patent US20220211813A1", "about": "“METHODS FOR TREATMENT OF NIEMANN-PICK DISEASE TYPE C” (LOMA LINDA UNIVERSITY, priority 2019, published 2022)", "origin": "cited, not measured here", "test_system": "IFN-γ", "conditions": "as described in Pododlin et al. J Pharmacol Exp Ther. 312(1):373-81, 2005", "data": [{"smiles": "NC(=O)Nc1sc(-c2ccc(F)cc2)cc1C(N)=O", "note": "[TPCA-1]", "values": [{"measurement": "blocks IFN-γ", "value": "about 50%"}]}]}
